Among the data in ChEMBL document CHEMBL1201862, “PubChem BioAssay data set” (2004) are AC50 and EC50 values, retold here.

What is called AC50 is the concentration giving half of the maximal activity seen. Usually EC50 stands for the concentration needed to bring the measured effect to its halfway point.

The target in one data set is Cytochrome P450 3A4 (Homo sapiens, UniProt P08684).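 Further: CYP3A4 tested as one member of a cytochrome P450 panel screen.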
A further data set relates to Streptococcus. Kind of data set: Group A Streptococcus viability loss, dose response, counter-screen for streptokinase expression inhibitor project, luminescence, BacTiterGlo (AID 1915).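 Further: potency for reduction of bacterial viability or growth.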 The data set is classed as functional, organism-based.
For data set [1], the system named is Streptococcus sp. 'group A'. Briefly: growth inhibition of control SK(-) GAS strain, dose response, counter-screen for streptokinase expression inhibitor project, luminescence, kanamycin, BacTiterGlo, confirmation (AID 1900). Type of data set: functional, organism-based. In general terms: A counterscreen serves to expose hits that act by an unwanted route or on another target.

In a further data set the target is T1, Streptokinase A (Streptococcus pyogenes serotype M1, UniProt P10520).
T1 sequence (P10520 whole entry): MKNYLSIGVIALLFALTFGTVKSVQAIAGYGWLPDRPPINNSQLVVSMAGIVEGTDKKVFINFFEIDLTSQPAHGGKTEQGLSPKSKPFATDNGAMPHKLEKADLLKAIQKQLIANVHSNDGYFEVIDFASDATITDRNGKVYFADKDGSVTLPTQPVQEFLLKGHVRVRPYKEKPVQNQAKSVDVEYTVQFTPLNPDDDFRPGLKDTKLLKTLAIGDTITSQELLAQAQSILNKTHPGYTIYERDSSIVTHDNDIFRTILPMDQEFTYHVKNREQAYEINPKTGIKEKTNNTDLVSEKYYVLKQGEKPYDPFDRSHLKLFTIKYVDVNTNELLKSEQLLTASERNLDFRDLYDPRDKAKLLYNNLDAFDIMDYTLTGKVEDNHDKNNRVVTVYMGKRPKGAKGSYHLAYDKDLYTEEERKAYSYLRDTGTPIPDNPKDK
Kind of data set: S. pyogenes streptokinase expression inhibitors, potency, dose response, plasminogen activation absorbance, OD405 (AID 1914).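 Further: secreted streptokinase activity via plasminogen activation per viability signal from cell pellet.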 The data set is classed as functional, Streptococcus pyogenes M1 GAS.

Data set [2] can be described thus: cytotoxicity toward NIH3T3 fibroblasts, dose response, counter-screen, cell-based, ATP luminescence, mouse fibroblasts (AID 2010).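 Further: cells exposed to compound for about 90 hours before reading.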 The data set is classed as functional.
Data set [3] can be described thus: inhibitors of intracellular T. cruzi replication, confirmation, NIH3T3 host cells, beta-gal luminescence (AID 2044).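 Further: intracellular parasites grown in NIH/3T3 mouse fibroblasts as host cells; luminescent beta-galactosidase reporter signal from transgenic T. cruzi replicating inside host cells; inhibitors lower the luminescence signal.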 Type of data set: functional, cell-based.
Another data set concerns the target Cytochrome P450 2C19 (Homo sapiens, UniProt P33261). Briefly: Cytochrome panel assay with activity outcomes. Panel member name: p450-cyp2c19 Compounds with AC50 equal or less than 10 uM are considered active. The data set is classed as functional.

Values joined by “and” are separate entries in the source; they are usually repeats but may differ in a detail not shown here. Identical values can stand only once. Active and inactive are the calls of the source.

Sequence of Cytochrome P450 2C19 (P33261 whole entry): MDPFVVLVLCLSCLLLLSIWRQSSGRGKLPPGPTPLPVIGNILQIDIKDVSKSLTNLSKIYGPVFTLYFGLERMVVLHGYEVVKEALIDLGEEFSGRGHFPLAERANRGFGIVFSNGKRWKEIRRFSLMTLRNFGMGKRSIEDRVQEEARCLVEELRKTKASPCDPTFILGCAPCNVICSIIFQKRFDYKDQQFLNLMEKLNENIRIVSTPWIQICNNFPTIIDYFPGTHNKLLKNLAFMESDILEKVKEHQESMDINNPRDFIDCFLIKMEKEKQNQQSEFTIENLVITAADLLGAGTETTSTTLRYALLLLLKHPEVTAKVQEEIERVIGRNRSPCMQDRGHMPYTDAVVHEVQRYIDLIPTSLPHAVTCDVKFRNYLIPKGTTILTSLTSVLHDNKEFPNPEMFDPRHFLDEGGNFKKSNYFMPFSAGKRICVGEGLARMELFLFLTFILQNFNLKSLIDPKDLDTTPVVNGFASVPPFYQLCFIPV
Sequence of Cytochrome P450 3A4 (P08684 whole entry): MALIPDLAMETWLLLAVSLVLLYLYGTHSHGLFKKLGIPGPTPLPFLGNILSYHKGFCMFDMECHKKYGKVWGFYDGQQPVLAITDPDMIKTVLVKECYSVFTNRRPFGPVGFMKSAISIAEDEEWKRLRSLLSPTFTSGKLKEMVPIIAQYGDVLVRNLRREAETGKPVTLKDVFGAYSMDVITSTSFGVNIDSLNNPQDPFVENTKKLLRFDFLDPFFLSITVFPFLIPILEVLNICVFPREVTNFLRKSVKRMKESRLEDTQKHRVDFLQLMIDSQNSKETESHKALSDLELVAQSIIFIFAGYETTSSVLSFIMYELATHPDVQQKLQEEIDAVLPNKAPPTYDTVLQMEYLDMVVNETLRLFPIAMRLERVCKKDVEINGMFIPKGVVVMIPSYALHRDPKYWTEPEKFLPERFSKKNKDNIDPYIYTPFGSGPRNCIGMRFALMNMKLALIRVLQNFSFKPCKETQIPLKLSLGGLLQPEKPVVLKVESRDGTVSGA

For the compound `Oc1cc2c(c(Cl)c1O)CCNC[C@H]2c1ccccc1`, the AC50 at Cytochrome P450 3A4 is 39.8 µM (inconclusive) and 12.6 µM (inconclusive).

For `COc1ccccc1CCNC(=O)C(=O)c1cn(CC(=O)N2CCCC2)c2ccccc12`, the EC50 (with Streptococcus; in data set [1]; on Streptokinase A) was > 150 µM (not active) each time.

With `CN(C)Cc1ccccc1-c1cc(NCc2cccs2)ncn1`, the AC50 at Cytochrome P450 3A4 was 10 µM (inconclusive).

Take `O=C(Nc1ccc(N2CCCCC2)c(Cl)c1)c1ccc(N2CCOCC2)c([N+](=O)[O-])c1`: the EC50 is > 60 µM (not active) in data set [2] and 1.06 µM (active) in data set [3].

As to `COC(=O)c1ccc(Oc2nc3ccccc3n3c(C)nnc23)cc1`, the EC50 in the data set on Streptococcus is 61.2 µM (active); in data set [1] it was 3.82 µM (active); on Streptokinase A it was > 150 µM (not active).

For `CC(C)=CCC/C(C)=C/CC/C(C)=C/CSc1ccccc1C(=O)O` [SALIRASIB], on Cytochrome P450 3A4, the AC50 was 31.6 µM (inconclusive).

Turning to `O=[N+]([O-])c1nn(-c2ccccc2)[n+]([O-])c1N1CCN(c2ccccc2F)CC1`, the concentration for a half-maximal effect (EC50) was > 60 µM (not active) in data set [2] and 0.458 µM (active) in data set [3].

Consider `CC(=O)NCCNc1ncnc2ccc(-c3ccccc3C#N)cc12`, for which the AC50 was 10 µM (inconclusive) at Cytochrome P450 2C19 (read-out: AC50) and 25.1 µM (inconclusive) at Cytochrome P450 3A4.

As to `CCSC1=NC2(CCCCC2)Nc2sc3c(c21)CCCC3`, the results for the EC50 in data set [2] and in data set [3] were 20.6 µM (active) and 2.23 µM (active), respectively.

In the case of `COc1ccc(C(=O)c2ccc(N3CCN(C4CC(=O)NC4=O)CC3)cc2)cc1F` (stereo not drawn), the EC50 is 33.3 µM (active) in the data set with Streptococcus, 2.99 µM (active) in data set [1] and > 150 µM (not active) at Streptokinase A.

As to `COCC1CCCCN1C(=O)c1ccc2oc(CCCc3ccccc3)nc2c1` (stereo not drawn), the EC50 in the data set with Streptococcus was > 150 µM (not active); in data set [1], 98.8 µM (active); at Streptokinase A it was > 150 µM (not active).

On to `CC(C)Oc1cccc(C(=O)NC(=S)N2CCN(c3ccc(C(F)(F)F)cc3[N+](=O)[O-])CC2)c1`, for which the AC50 on Cytochrome P450 3A4 is 14.1 µM (inconclusive).

Take `Cc1ccc(C(=O)NCc2ccc(N3CCN(C(=O)OC(C)(C)C)CC3)cc2)cc1`: on Cytochrome P450 2C19 (read-out: AC50), the AC50 was 14.1 µM (inconclusive).

`N#Cc1ccc(CN2CCC3(CC2)CCN(S(=O)(=O)c2ccccc2)CC3)cc1`: the AC50 on Cytochrome P450 3A4 was 20 µM (inconclusive).

Turning to `CC(C)C[C@H](NC(=O)c1[nH]cnc1C(=O)Nc1ccccc1)C(=O)OC(C)(C)C`, the EC50 in the data set on Streptococcus is 7.19 µM (active); in data set [1] it was 3.21 µM (active).

Regarding `CCOC(=O)N1CCN(C(=O)c2cc3n(n2)C(C(F)(F)F)CC(c2ccc4c(c2)OCO4)N3)CC1` (stereo not drawn), the EC50 in the data set with Streptococcus is > 150 µM (not active); in data set [1] it was 62.1 µM (active); at Streptokinase A it was > 150 µM (not active).

Consider `O=S(=O)(Cc1nnnn1-c1ccccc1)c1ccc(F)cc1`, for which the EC50 (in the data set with Streptococcus; in data set [1]; at Streptokinase A) was > 150 µM (not active) each time.

Regarding `S=C(Nc1ccccc1Cl)N(Cc1ccccc1)Cc1cccnc1`, the concentration giving a half-maximal response (EC50) in data set [2] is > 60 µM (not active); in data set [3], 0.992 µM (active).

With `O=C(NC1CCN(Cc2ccccc2)CC1)c1ccc2c(c1)nc(O)n2Cc1ccc(F)cc1`, the half-maximal effective concentration (EC50) was > 60 µM (inconclusive) in data set [2] and 0.485 µM (active) in data set [3].

With `COc1ccc(N(CC(=O)NCCSCc2cccc(Cl)c2)S(C)(=O)=O)cc1Cl`, the EC50 is 79.6 µM (active) with Streptococcus, 13 µM (active) in data set [1] and 23.2 µM (active) on Streptokinase A.

For the compound `COc1cc(-c2nc(-c3ccc4c(c3)-c3ccccc3S4(=O)=O)c(-c3ccccc3)[nH]2)cc(OC)c1OC`, the EC50 in data set [2] is > 60 µM (not active); in data set [3] it was 1.81 µM (active).

As for `Cc1cc(C(F)F)n2nc(C(=O)Nc3cccnc3Cl)nc2n1`, on Cytochrome P450 2C19, the AC50 result is “inconclusive”.

As to `COc1ccc(CC(=O)NCC2CCCN(Cc3cc(OC)cc(OC)c3)C2)cc1` (stereo not drawn), the EC50 in data set [2] is > 30 µM (not active); in data set [3], 0.197 µM (active).

As for `CCc1ccc(CNc2ccc3c(c2)ncn3C(C)(C)C)cc1`, the values for the EC50 (in the data set with Streptococcus; in data set [1]; at Streptokinase A) were > 150 µM (not active), 10.7 µM (active) and > 150 µM (not active), respectively.

For the compound `O=C(NC(=S)NNC(=O)c1cccs1)c1ccco1`, the EC50 was 36.2 µM (active) with Streptococcus, 7.02 µM (active) in data set [1] and > 150 µM (not active) on Streptokinase A.

`COc1cc(-c2nc3ccccn3c2NCc2ccccc2)ccc1SC1CCCCC1`: the EC50 in data set [2] is > 60 µM (not active); in data set [3], 0.954 µM (active).

Take `Cc1[nH]c2ccccc2c1C(=O)COC(=O)c1ccc2c(=O)n3c(nc2c1)CCC3`: the EC50 with Streptococcus is 1.99 µM (active); in data set [1], 1.74 µM (active).

For the compound `CC(C)NC(=O)N1CCC2(CC1)CCN(C(=O)c1ccncc1)CC2`, on Cytochrome P450 3A4, the AC50 is 25.1 µM (inconclusive).

On to `Brc1ccc(Nc2ncnc3[nH]ncc23)cc1`, for which the EC50 in the data set with Streptococcus was 143 µM (active); in data set [1], 5.77 µM (active); at Streptokinase A it was > 150 µM (not active).

For the compound `COC(=O)[C@@]1(Cc2ccc(OC)cc2)[C@H]2c3cc(C(=O)N4CCCC4)n(Cc4ccc(OC)c(OC)c4)c3C[C@H]2CN1C(=O)c1ccccc1`, the AC50 at Cytochrome P450 2C19 (read-out: AC50) is 15.8 µM (inconclusive).

For the compound `CNc1ncnc2ccc(-c3ccccc3C#N)cc12`, the AC50 at Cytochrome P450 3A4 was 12.6 µM (inconclusive).

Consider `CN(C)c1ncc2nc(CCc3ccccc3)c(=O)n(CCC#N)c2n1`, for which the AC50 on Cytochrome P450 3A4 is 20 µM (inconclusive).

Turning to `CC(=O)Nc1ccc(C2C(=O)c3ccccc3C2=O)cc1`, the results for the 50% effective concentration (EC50) (in the data set on Streptococcus; in data set [1]; at Streptokinase A) were > 150 µM (not active), 31.3 µM (active) and > 150 µM (not active), respectively.

In the case of `CC(C)=NO[C@@H](C)CN1CCCCc2nc(C)c(C)cc21`, the AC50 at Cytochrome P450 3A4 is 3.98 µM (inconclusive).

`CO/C(O)=C1\C(C)=NC2=C(C(=O)c3ccccc32)C1c1ccc(-c2ccc(C(=O)O)cc2)o1` (stereo not drawn): the EC50 in the data set with Streptococcus was 69 µM (active); in data set [1], 3.77 µM (active); on Streptokinase A it was > 150 µM (not active).

`COc1ccc(C(CCN)c2ccc3c(c2)OCO3)cc1` (stereo not drawn): the EC50 in data set [2] was > 60 µM (not active); in data set [3] it was 7.31 µM (active).

As to `Cc1nc(N2CCN(c3ccccc3O)CC2)c2c(-c3ccccc3)csc2n1`, the values for the EC50 (with Streptococcus; in data set [1]; at Streptokinase A) were > 150 µM (not active), 15.1 µM (active) and 34.4 µM (active), respectively.

Take `O=c1cnc2cnc(Oc3ccccc3)nc2n1Cc1ccc(F)cc1`: at Cytochrome P450 3A4, the AC50 was 20 µM (inconclusive).

Take `Cc1ccc(NC(=O)C2CC2C)cc1S(=O)(=O)N1CCOCC1` (stereo not drawn): the EC50 in data set [2] is > 30 µM (not active); in data set [3] it was 1.91 µM (active).

As to `O=C(CSc1nnc(NC(=O)c2ccccc2[N+](=O)[O-])s1)NC1CCCC1`, the EC50 (in the data set with Streptococcus; in data set [1]; on Streptokinase A) was > 150 µM (not active) throughout.

For the compound `COc1ccc(C2CC(c3ccc(Br)cc3)=NN2C(=O)CSC2=NN3CCCC(=O)N=C3S2)cc1` (stereo not drawn), the EC50 is > 60 µM (not active) in data set [2] and 4.07 µM (active) in data set [3].

For `CC(CCc1ccccc1)NC(=O)/C=C/c1ccccc1` (stereo not drawn), on Cytochrome P450 3A4, the AC50 was 25.1 µM (inconclusive).

In the case of `COc1cc(C(=O)Nc2nc(-c3ccc(C)cc3)cs2)ccc1OCC(=O)N1CCOCC1`, the EC50 in data set [2] was > 60 µM (inconclusive); in data set [3], 2.04 µM (active).

Consider `CCOC(=O)c1c(NC(=O)CN2CCCCC2)sc2c1CCN(C(=O)OCC)C2`, for which the results for the EC50 in data set [2] and in data set [3] were > 60 µM (not active) and 1.13 µM (active), respectively.

With `Cc1cccc(NC(=O)NCc2ccc3c(c2)OCO3)c1`, the EC50 (in the data set on Streptococcus; in data set [1]; on Streptokinase A) was > 150 µM (not active) in each case.

`Cc1cc(C)cc(C(=O)N2CCC(CCC(=O)NC3CC3)CC2)c1`: the EC50 (with Streptococcus; in data set [1]; on Streptokinase A) was > 150 µM (not active) throughout.

In the case of `CC(C)=CCC/C(C)=C/CO/N=C1/C[C@@H](O)[C@@H](O)[C@@H]2[C@@H]3C(=O)N(Cc4ccccc4)C(=O)[C@H]3CC[C@H]12`, on Cytochrome P450 2C19 (read-out: AC50), the AC50 was 0.0631 µM (inconclusive).

As to `CCCOc1ccc(-c2nn(-c3ccccc3)cc2/C=C2\SC(N)=NC2=O)cc1C`, the EC50 in data set [2] was > 60 µM (not active); in data set [3], 1.04 µM (active).

Take `COc1cc(COc2cc(N)c(Cl)cc2C(=O)CCC2CCN(CCNS(C)(=O)=O)CC2)cc(OC)c1`: the AC50 at Cytochrome P450 2C19 (read-out: AC50) is 15.8 µM (inconclusive).
